Experimental data: patent US20210323918A1, “COMPOSITIONS AND METHODS FOR SUPPRESSING AND/OR TREATING A GROWTH RELATED DISEASE AND/OR A CLINICAL CONDITION THEREOF” (CK Biotech Inc., priority 2018, published 2021)
pIC50: −log10 of the molar value.

What was measured:
GSK3β (human) = GSK3β (human) (Homo sapiens, UniProt P49841); experiment: GSK3β kinase assay; type: biochemical; settings: from dose-response curve, FIG. 4C; read-out: IC50, in vitro GSK3β activity
Description: GSK3β kinase assay. GSK3β (human) was incubated with 8 mM MOPS (pH 7.0), 0.2 mM EDTA, 20 μM […](p) EDEEE (phospho-GS2 peptide) (SEQ ID NO. 37), 10 mM Mg acetate, and [γ-33P-ATP] (specific activity approx. 500 cpm/pmol, concentration as required). The reaction was initiated by the addition of the Mg-ATP mixture. After incubation for 40 minutes at room temperature, the reaction was stopped by addition of 3% phosphoric acid solution. 10 μl of the reaction was then spatted onto a P30 filtermat and washed three times for 5 minutes in 50 mM phosphoric acid and once in methanol prior to drying and scintillation counting.

[1] = In vivo pharmacokinetics of KY19382; parameters: species or system Sprague-Dawley (SD) rats; settings: rat
Description: In vivo pharmacokinetics of KY19382. Animal studies were approved by the Institutional Animal Care and use committee at KRIBB. Briefly, specific pathogen-free male Sprague-Dawley (SD) rats (10 weeks old, body weight 298-315 g), purchased from Koatech Co. (Kyeonggi, Republic of Korea), were given a single dose of KY19382 intravenously (iv, 1 mg/kg, n=3) or intraperitoneal (ip, 5 mg/kg, n=3). […] A 100 μl aliquot of each plasma sample was prepared, and three volumes of ice-cold acetonitrile containing carbamazepine (internal standard) were added. The mixture was centrifuged at 910 g for 10 min, and the supernatant was subjected to LC-MS/MS analysis. Pharmacokinetic parameters were calculated by standard noncompartmental analysis of plasma concentration-time profiles using Kinetica 4.4.1 (Thermo Fisher Scientific, Inc., Woburn, Mass., USA). The areas under the plasma concentration-time curves (AUC) were calculated by the linear-trapezoidal method. Systemic plasma clearance (CLP) was calculated as follows: CLP=dose/AUCinf. […] Volume of distribution at steady state (VSS) was calculated as follows: VSS=dose×AUMCinf/(AUCinf)2, where AUMCinf is the area under the first moment of the plasma concentration-time curve extrapolated to infinity Bioavailability (F) was calculated as follows: F (%)=(AUCip/AUCiv)(doseiv/doseip)×100.

C28/I2 cells = experiment: Protein and mRNA expression in C28/I2 chondrocyte cells; type: cell-based, human
Source text: Cell culture and reagents. The mouse chondrogenic cell line, ATDC5, was obtained from the RIKEN Cell Batik. The human juvenile costal chondrocyte cell line, C28/I2, was provided by Dr. W. U. Kim (Catholic University, Korea). HEK293-TOP cells (HEK293 cells containing the chromosomally incorporated TOPFlash gene) were provided by Dr. S. Oh (Kuk Min University, Korea). ATDCS cells were maintained in DMEM/F12 (1:1) (Gibco, Grand Island, N.Y.) supplemented with 5% FBS (Gibco). To induce hypertrophic differentiation, ATDC5 cells were incubated with insulin-transferrin-sodium selenite (ITS) supplement (Gibco) in three-dimensional alginate beads for 3 days, as previously described. See e.g., Kawasaki Y. et al. (2008), Phosphorylation of GSK-3beta by cGMP-dependent protein kinase II promotes hypertrophic differentiation of murine chondrocytes. J CLIN INVEST 118: 2506-2515. C28/I2 and HEK293-TOP cells were maintained in DMEM (Gibco) containing 10% FBS. All chemicals were dissolved in dimethyl sulfoxide (DMSO; Sigma-Aldrich, St Louis, Mo.) for the in vitro studies. For E2 (17β-estradiol; Sigma-Aldrich) treatment, cells were cultured in phenol red-free DMEM/F12 with 5% charcoal-stripped FBS for 24 hours followed by serum-free medium for 24 hours before the experiment. The PTD-DBMP was synthesized by Peptide 2.0 Inc (Chantilly, Va.).
Immunocytochemistry. ATDCS or C28/I2 cells were seeded on glass coverslip in 12-well culture plates. The cells were washed with PBS and fixed with 4% PFA at room temperature for 15 minutes. After permeabilization with 0.1% triton-X-100 for 15 minutes and blocking with 5% BSA for 1 hour, the cells were incubated with primary antibodies specific for β-catenin (1:100) or CXXC5 l (1:200) at 4° C. overnight. […]
Immunoblot analyses. […] Immunoblot bands were analyzed using Multi-Gauge V3.0 software (Fujifilm). Points of interest (POIs) from immunoblot bands were marked and quantified using densitometry, and the background signals were subtracted from respective immunoblot signals. […]
Reverse transcription and quantitative real-time PCR. […]

[2] = male, Sprague-Dawley, plasma, IP, 5 mg/kg, mean
[3] = male, Sprague-Dawley, plasma, IV, 1 mg/kg, mean

Sequence of GSK3β (human) (P49841 whole entry): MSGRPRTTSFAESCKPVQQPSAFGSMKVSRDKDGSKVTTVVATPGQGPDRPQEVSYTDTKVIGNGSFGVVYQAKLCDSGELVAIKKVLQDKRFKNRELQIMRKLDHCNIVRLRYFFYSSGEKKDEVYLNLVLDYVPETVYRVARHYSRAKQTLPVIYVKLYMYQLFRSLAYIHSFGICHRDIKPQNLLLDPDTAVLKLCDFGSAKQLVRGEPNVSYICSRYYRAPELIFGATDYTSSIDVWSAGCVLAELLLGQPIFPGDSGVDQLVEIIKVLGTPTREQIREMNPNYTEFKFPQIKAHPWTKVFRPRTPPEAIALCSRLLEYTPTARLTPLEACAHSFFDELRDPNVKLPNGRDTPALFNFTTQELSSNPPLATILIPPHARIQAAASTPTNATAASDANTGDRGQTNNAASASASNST

Compound	pIC50 (GSK3β (human))	CL ([1]; IP, 5 mg/kg, mean)	bioavailability ([1]; male, Sprague-Dawley, plasma, intraperitoneal, IP, 5 mg/kg vs IV, 1 mg/kg)	AUC(0-t) [1, 2]	Cmax [1, 2]	Tmax [1, 2]	half-life [1, 2]	AUC(0-t) [1, 3]	clearance [1, 3]	half-life [1, 3]	Vd ([1]; male, Sprague-Dawley, plasma, IV, 1 mg/kg, mean, read-out: Vss)	mRNA levels of chondrogenic markers (C28/I2 cells; 1 μM, 3 days, alginate beads, FIG. 11C)	expression of CXXC5 (C28/I2 cells; 100 nM, 0-72 hours, FIG. 2A)	β-catenin level (C28/I2 cells; 100 nM, following 24 hours)
CO/N=C1/C(=C2/C(=O)Nc3cc(Cl)c(Cl)cc32)Nc2ccccc21 [KY19382, 5,6-dichloroindirubin-3′-methoxime]	8.00	7.83 mL/min/kg	16.7%	6560 ng·h/mL	463 ng/mL	1 h	16.2 h	7830 ng·h/mL	2 mL/min/kg	3.33 h	0.33 L/kg	upregulated	–	–
17β-estradiol [Compound E2]	–	–	–	–	–	–	–	–	–	–	–	–	induced expression of CXXC5 in a time-dependent manner	reduced
